Test results from patent publication US20170183318A1, “AMIDE COMPOUNDS, METHODS FOR PREPARATION, AND USE THEREOF AS AGENTS FOR THE TREATMENT AND PREVENTION OF DISEASES CAUSED BY RNA- AND/OR DNA-CONTAINING VIRUSES, AND CONCOMITANT DISEASES” (OBSCHESTVO S OGRANICHENNOI OTVETSTVENNOSTIYU …, priority 2014, published 2017).

Tests used:
[1] = Rat model of nasopharyngitis induced by formalin (nasal mucosa changes, cell elements in nasal lavage); format: in vivo; settings: Wistar rats, 18 mg/kg for 3 days; for Mucous membrane of nasal passages: Without changes (number of animals): number of animals out of n = 10, control 0 of 20; for Mucous membrane of nasal passages: Discharge mucus from the nasal passages (number of animals): number of animals out of n = 10, control 20 of 20
Description: Nasopharyngitis was induced by intranasal administration of formalin to each nasal passage of rats.
The administration of formalin to the nasal passages of rats leads to the dissemination of inflammation to adjacent tissues, resulting in a clinical pattern similar to the symptoms of nasopharyngitis in a human.
After an acclimatization period, the following groups were formed: • intact animals administered intragastrically a physiological solution in an amount of 0.2 ml, without induction of nasopharyngitis; • a control group consisted of animals administered intragastrically a physiological solution in an amount of 0.2 ml for 3 days after induction of nasopharyngitis; and • animals administered the studied compounds at a dose of 18 mg/kg for 3 days after induction of nasopharyngitis.
Clinical observation of each animal was performed every day at least twice daily.
The caused pathology was characterized by hyperplasia, increased number of caliciform cells, pronounced infiltration of mononuclear cells and leucocytes, and mucus hyperproduction by submucosal glands.
After euthanasia, the inflammation pattern in the nasal passages and throat was studied in each group of animals. The nasal passages were washed with 5 mL of physiological solution and the score of cell elements were counted in 1 μL.

[2] = system: human adenovirus type 5; test: Model of experimental adenovirus infection (destructive processes in the liver, electron microscopy); format: in vivo; settings: newborn Syrian hamsters, 30 mg/kg orally 12, 36, 60 h after infection, liver 72 h after infection, virus control Intensive damages
Description: In the study, human adenovirus type 5 was used. In order to play adenovirus infection were used Newborn Syrian hamsters, in which the virus caused disseminated viral infection with damage to liver, lung and heart, were used to reproduce the viral infection. The animals were studied 48 hours after birth. Each group comprised 5 hamsters. The virus was inoculated subcutaneously in a volume of 0.1 mL, at a dose of 10^5 TCID50. The treatment was carried out orally with the compounds of general formula I at a dose of 30 mg/kg of body weight 12, 36, and 60 hours after infection. The animals of the placebo group were administered phosphate buffered saline. Intact animals served as control and were hold in a separate room under the same conditions as the experimental animals. 72 hours after infection, the animals of each group were euthanized, dissected, and the liver was isolated. The therapeutic effect was evaluated by the action on ultrastructural features of the morphogenesis of adenovirus infection in the liver by electron microscopy.

[3] = system: human respiratory syncytial virus (strain A2); test: Antiviral activity against RS virus in a murine model of suppressed immune system (lung edema); format: in vivo; settings: Balb/c mice, cyclophosphan-suppressed, RS-virus pneumonia; 30 mg/kg once daily for 5 days; M ± SD, n = 5; scores from possible 4
In short: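 Balb/c mice immunosuppressed with cyclophosphan 100 mg/kg i.p. 5 days before intranasal infection (virus titer 5×10^6 TCID50/mL). Compounds given 30 mg/kg once daily for 5 days, starting 24 h post-infection. Activity scored as reduction in lung edema versus infected control on day 5.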

[4] = system: Sendai strain of parainfluenza virus; test: Antiviral activity against parainfluenza virus in mice (mortality); format: in vivo, white outbred mice; settings: Mus musculus, po, 336 h, 10LD50 intranasally, 30 mg/kg orally once daily 24-120 h after infection, 14 days observation, 20 mice per group, virus control 75.0
Description: In the study the Sendai strain of parainfluenza virus was used. White outbred mice weighing 10-12 g were infected intranasally with the Sendai strain of parainfluenza virus adapted to mouse lungs under brief ether anesthesia in a volume of 0.05 ml/mouse. The infectious dose of the virus that caused 70-80% mortality in mice was 10LD50. Each group used in the experiment comprised 20 animals. Intact animals served as control and were hold in a separate room under the same conditions as the experimental animals. The antiviral activity of the compounds of general formula I was studied by oral administration of the compounds to infected mice once daily at a dose of 30 mg/kg/mouse 24, 48, 72, 96, and 120 hours after infection of the animals with the virus. The mice of the control group were administered placebo (0.2 mL of physiological solution) under the same conditions. The animals were monitored for 14 days after infection by registration the mouse death in the groups.
Each animal was subjected to once-daily observation. The observation included the assessment of general behavior and body condition of animals. In days of administration of preparations, the observation was conducted before administration of a preparation in a certain time and about two hours after administration. The animals were handled according to the International Standards.
The activity of the compounds was evaluated by comparing mortality rates in the groups of animals administered a preparation and placebo.

[5] = system: hRV; test: Antiviral activity against rhinovirus in mice (infectious titer in lungs titrated in Hela cells; body and lung weight); format: in vivo; settings: 30 mg/kg orally once daily for 4 days from 12 h after infection; lung suspension titrated in Hela cells
Description: In this study, author's strain of hRV was used. The animals were infected with the virus intranasally under brief ether anesthesia in a volume of 0.05 ml/mouse.
To determine the efficiency of the compounds against hRV in the experimental model in vivo, the virus was previously titrated in mice, then the mice were infected, and the studied compounds were administered orally. The infectious titer was assessed on day 4 after infection by titration of a lung suspension in Hela cell culture. The infectious titer of the hRV virus in the lugs of the experimental group was determined in comparison with that in the control group by TCID.
The studied compounds and placebo (physiological solution) were orally administered to the mice once daily for 4 days, starting 12 hours after infection. The compounds were administered at a dose of 30 mg/kg of animal body weight. Intact animals served as a negative control and were kept under the same conditions as the experimental animals in a separate room.
The antiviral activity of the studied compounds was determined on day 4 after infection by a reduction of the virus infectious activity determined in Hela cell culture.

[6] = system: HCoV (antigenically similar to prototype strain OC-43); test: Murine model of coronavirus infection (mortality); format: in vivo; settings: Mus musculus, po, 336 h; HCoV intranasally, C57BL/6 mice; 30 mg/kg orally once daily for 5 days from 24 h after infection; 14 days; 20 mice per group; virus control 60.0
Description: In the study, author's strain HCoV was used, identified as group 2 virus antigenically similar to prototype strain OC-43. The efficiency of the compounds was studied in C57BL/6 mice by comparing mortality rates in the treated and control mice for 14 days after infection. Each experimental group comprised 20 mice. The animals were infected intranasally in a volume of 0.03 ml/mouse under brief ether anesthesia.
The studied compounds were administered to the animals orally at a dose of 30 mg/kg of body weight. The animals of the control group were administered physiological solution. Preparations were administered once daily for 5 days. The treatment of animals was started 24 hours after infection.

## O=C(O)CCCC(=O)NCCc1nc2ccccc2s1 [Compound 275]
[1]
  Mucous membrane of nasal passages: Without changes (number of animals): 3
  Mucous membrane of nasal passages: Discharge mucus from the nasal passages (number of animals): 7
[2]
  Evaluation of damage (intensity of destructive processes in the liver): Mild damage
[3]
  Degree of lung edema on day 5 after infection, score: 1.80 ± 0.20 score
[4]
  mortality at 30 mg/kg: 40%
[5]
  Infectious titer of the virus in lungs lg TCID50 (4 days after infection): 0.45 ± 0.1 lg TCID50
[6]
  mortality at 30 mg/kg: 40%

## CC(C)N(CCc1cnc[nH]1)C(=O)CCCC(=O)O [Compound 141]
[1]
  Mucous membrane of nasal passages: Without changes (number of animals): 4
  Mucous membrane of nasal passages: Discharge mucus from the nasal passages (number of animals): 6
[2]
  Evaluation of damage (intensity of destructive processes in the liver): Mild damage
[3]
  Degree of lung edema on day 5 after infection, score: 0.55 ± 0.21 score
[4]
  mortality at 30 mg/kg: 40%
[5]
  Infectious titer of the virus in lungs lg TCID50 (4 days after infection): 0 ± 0 lg TCID50
[6]
  mortality at 30 mg/kg: 35%

## O=C(O)CCCC(=O)NCCC1CCCN1 (stereo not drawn) [Compound 2]
[1]
  Mucous membrane of nasal passages: Without changes (number of animals): 3
  Mucous membrane of nasal passages: Discharge mucus from the nasal passages (number of animals): 7
[2]
  Evaluation of damage (intensity of destructive processes in the liver): Mild damage
[3]
  Degree of lung edema on day 5 after infection, score: 1.95 ± 0.32 score
[4]
  mortality at 30 mg/kg: 35%
[5]
  Infectious titer of the virus in lungs lg TCID50 (4 days after infection): 0.1 ± 0.05 lg TCID50
[6]
  mortality at 30 mg/kg: 30%

## O=C(O)CCCC(=O)NCCCc1c[nH]cn1 [Compound 118]
[1]
  Mucous membrane of nasal passages: Without changes (number of animals): 5
  Mucous membrane of nasal passages: Discharge mucus from the nasal passages (number of animals): 5
[2]
  Evaluation of damage (intensity of destructive processes in the liver): Mild damage
[3]
  Degree of lung edema on day 5 after infection, score: 1.85 ± 0.45 score
[4]
  mortality at 30 mg/kg: 30%
[5]
  Infectious titer of the virus in lungs lg TCID50 (4 days after infection): 0 ± 0 lg TCID50
[6]
  mortality at 30 mg/kg: 40%

## O=C(O)CCCC(=O)NCCC1CCCCN1 (stereo not drawn) [Compound 6]
[1]
  Mucous membrane of nasal passages: Without changes (number of animals): 4
  Mucous membrane of nasal passages: Discharge mucus from the nasal passages (number of animals): 6
[2]
  Evaluation of damage (intensity of destructive processes in the liver): Mild damage
[3]
  Degree of lung edema on day 5 after infection, score: 0.90 ± 0.22 score
[4]
  mortality at 30 mg/kg: 25%
[5]
  Infectious titer of the virus in lungs lg TCID50 (4 days after infection): 0.4 ± 0.15 lg TCID50
[6]
  mortality at 30 mg/kg: 35%

## Cc1csc(CCNC(=O)CCCC(=O)O)n1 [Compound 197]
[1]
  Mucous membrane of nasal passages: Without changes (number of animals): 6
  Mucous membrane of nasal passages: Discharge mucus from the nasal passages (number of animals): 4
[2]
  Evaluation of damage (intensity of destructive processes in the liver): Mild damage
[3]
  Degree of lung edema on day 5 after infection, score: 1.15 ± 0.23 score
[4]
  mortality at 30 mg/kg: 25%
[5]
  Infectious titer of the virus in lungs lg TCID50 (4 days after infection): 0.37 ± 0.06 lg TCID50
[6]
  mortality at 30 mg/kg: 45%

## O=C(O)CCCC(=O)NCCCc1cccs1 [Compound 34]
[1]
  Mucous membrane of nasal passages: Without changes (number of animals): 3
  Mucous membrane of nasal passages: Discharge mucus from the nasal passages (number of animals): 7
[2]
  Evaluation of damage (intensity of destructive processes in the liver): Mild damage
[3]
  Degree of lung edema on day 5 after infection, score: 1.75 ± 0.4 score
[4]
  mortality at 30 mg/kg: 15%
[5]
  Infectious titer of the virus in lungs lg TCID50 (4 days after infection): 0.5 ± 0.20 lg TCID50
[6]
  mortality at 30 mg/kg: 45%

## O=C(O)CCCC(=O)NC(Cc1c[nH]cn1)C(=O)O (stereo not drawn) [Compound 251]
[1]
  Mucous membrane of nasal passages: Without changes (number of animals): 4
  Mucous membrane of nasal passages: Discharge mucus from the nasal passages (number of animals): 6
[2]
  Evaluation of damage (intensity of destructive processes in the liver): Mild damage
[3]
  Degree of lung edema on day 5 after infection, score: 0.90 ± 0.21 score
[4]
  mortality at 30 mg/kg: 35%
[5]
  Infectious titer of the virus in lungs lg TCID50 (4 days after infection): 0 ± 0 lg TCID50
[6]
  mortality at 30 mg/kg: 30%

## CC(Cc1cnc[nH]1)NC(=O)CCCC(=O)O (stereo not drawn) [Compound 115]
[1]
  Mucous membrane of nasal passages: Without changes (number of animals): 3
  Mucous membrane of nasal passages: Discharge mucus from the nasal passages (number of animals): 7
[2]
  Evaluation of damage (intensity of destructive processes in the liver): Mild damage
[3]
  Degree of lung edema on day 5 after infection, score: 1.60 ± 0.5 score
[4]
  mortality at 30 mg/kg: 30%
[5]
  Infectious titer of the virus in lungs lg TCID50 (4 days after infection): 0.05 ± 0.05 lg TCID50
[6]
  mortality at 30 mg/kg: 30%
